In US8513275B2 (Salix Pharmaceuticals, Ltd, priority 2010, dated 2013):
Entries after “also recorded” stand apart in the source; their conditions may differ.

Key:
Format in all cases: physicochemical
[1] = Dynamic vapor sorption (moisture sorption, moisture balance) with post-sorption XRPD; settings: for weight loss from 95 to 5% RH: desorption 95-5% RH; for post-moisture sorption (post-MB / post-DVS) XRPD result: solid after DVS cycle; for weight gain from 5 to 95% RH: sorption 5-95% RH; for overall weight loss in moisture sorption: whole sorption/desorption cycle
Description: Automated vapor sorption (VS) data were collected on a VTI SGA-100 Vapor Sorption Analyzer. NaCl and PVP were used as calibration standards. Samples were not dried prior to analysis. […] The equilibrium criterion used for analysis was less than 0.0100% weight change in 5 minutes with a maximum equilibration time of 3 hours. Data were not corrected for the initial moisture content of the samples.
Automated dynamic vapor sorption (DVS) data were collected on a VTI SGA-100 Vapor Sorption Analyzer. NaCl and PVP were used as calibration standards. Samples were not dried prior to analysis. […] The equilibrium criterion used for analysis was less than 0.0100% weight change in 5 minutes with a maximum equilibration time of 3 hours.

[2] = Ambient storage / exposure to ambient conditions, XRPD; settings: for XRPD result after ambient storage: 8 days of ambient storage, large-scale sample
Excerpt: Form θ drying and physical stability evaluation was not formally included in the protocol. […] The initial sample was generated from nitrogen drying of Form ζ. The initial XRPD pattern was acquired utilizing parameters not consistent with the other data acquisition.

[3] = Particle size distributions for Rifaximin forms; settings: for d10: 10% of the total volume of particles less than the indicated size; for d50: 50% of the total volume of particles less than the indicated size; for d90: 90% of the total volume of particles less than the indicated size
[4] = Relative humidity stressing at ambient temperature, XRPD of stressed solid; settings: 84% RH, RT, 19 days
[5] = listed as As-Prepared Rifaximin Form κ
[6] = listed as post-drying rifaximin Form κ

CO[C@H]1/C=C/O[C@@]2(C)Oc3c(C)c(O)c4c(O)c(c5c(nc6cc(C)ccn65)c4c3C2=O)NC(=O)/C(C)=C\C=C\[C@H](C)[C@H](O)[C@@H](C)[C@@H](O)[C@@H](C)[C@H](OC(C)=O)[C@@H]1C [Form θ, rifaximin]
weight loss from 95 to 5% RH ([1]; listed as Rifaximin Form θ): 5.826% wt lost from 95%-5% RH
weight loss from 95 to 5% RH ([1]; listed as rifaximin Form θ): 5.8%
weight loss upon equilibration at 5% RH ([1]; initial equilibration at 5% RH, listed as rifaximin Form θ): 7.3%
wt change upon equilibration at 5% RH ([1]; signed change, initial equilibration at 5% RH): −7.314% wt change upon equilibration at 5% RH
post-moisture sorption (post-MB / post-DVS) XRPD result ([1]; listed as Rifaximin Form θ): ι
post-moisture sorption (post-MB / post-DVS) XRPD result ([1]; listed as rifaximin Form θ): Form ι; also recorded: Form t
weight gain from 5 to 95% RH ([1]; listed as Rifaximin Form θ): 5.733% wt gain from 5%-95% RH
weight gain from 5 to 95% RH ([1]; listed as rifaximin Form θ): 5.7%
overall weight loss in moisture sorption ([1]; listed as rifaximin Form θ): approximately 7.4%
XRPD result after ambient storage [2]: remained Form θ
XRPD result after ambient storage ([2]; listed as Rifaximin Form θ): θ (after 8 days of ambient storage)
XRPD result on reanalysis ([2]; reanalyzed within hours, nitrogen-dried sample): conversion to Form ι

CO[C@H]1/C=C/O[C@@]2(C)Oc3c(C)c(O)c4c(O)c(c5c(nc6cc(C)ccn65)c4c3C2=O)NC(=O)/C(C)=C\C=C\[C@H](C)[C@H](O)[C@@H](C)[C@@H](O)[C@@H](C)[C@H](OC(C)=O)[C@@H]1C [Form κ, rifaximin]
d10 [3]: 15.551 μm
d50 [3]: 90.684 μm
d90 [3]: 225.815 μm
weight loss from 95 to 5% RH [1, 5]: 12% wt loss from 95 to 5% RH.
weight loss from 95 to 5% RH ([1]; listed as rifaximin Form κ): 12%
weight loss upon equilibration at 5% RH ([1]; initial equilibration at 5% RH, listed as As-Prepared Rifaximin Form κ): 7.5% wt loss upon equilibration at 5% RH
weight loss upon equilibration at 5% RH ([1]; initial equilibration at 5% RH, listed as rifaximin Form κ): 7.5%
post-moisture sorption (post-MB / post-DVS) XRPD result [1, 5]: Disordered
post-moisture sorption (post-MB / post-DVS) XRPD result ([1]; listed as rifaximin Form κ): disordered
weight gain from 5 to 95% RH [1, 5]: 4.6% wt gain from 5 to 95% RH
weight gain from 5 to 95% RH ([1]; listed as rifaximin Form κ): 4.6%
overall weight loss in moisture sorption [1, 5]: Overall wt loss = 14. 9% (equivalent to ~2 moles of IPA)
overall weight loss in moisture sorption ([1]; listed as rifaximin Form κ): approximately 14.9%

CO[C@H]1/C=C/O[C@@]2(C)Oc3c(C)c(O)c4c(O)c(c5c(nc6cc(C)ccn65)c4c3C2=O)NC(=O)/C(C)=C\C=C\[C@H](C)[C@H](O)[C@@H](C)[C@@H](O)[C@@H](C)[C@H](OC(C)=O)[C@@H]1C [η, rifaximin]
d10 [3]: 3.857 μm
d50 [3]: 79.844 μm
d90 [3]: 290.353 μm

CO[C@H]1/C=C/O[C@@]2(C)Oc3c(C)c(O)c4c(O)c(c5c(nc6cc(C)ccn65)c4c3C2=O)NC(=O)/C(C)=C\C=C\[C@H](C)[C@H](O)[C@@H](C)[C@@H](O)[C@@H](C)[C@H](OC(C)=O)[C@@H]1C [Post-Drying Rifaximin Form κ, rifaximin]
weight loss from 95 to 5% RH [1]: 11.0% wt lost from 95%-5% RH
weight loss from 95 to 5% RH [1, 6]: 11%
weight loss upon equilibration at 5% RH ([1]; initial equilibration at 5% RH): 0.1% wt loss upon equilibration at 5% RH
weight loss upon equilibration at 5% RH ([1]; initial equilibration at 5% RH, listed as post-drying rifaximin Form κ): 0.1%
post-moisture sorption (post-MB / post-DVS) XRPD result [1]: Disordered κ
post-moisture sorption (post-MB / post-DVS) XRPD result [1, 6]: disordered
weight gain from 5 to 95% RH [1]: 7.7% wt gain from 5%-95% RH
weight gain from 5 to 95% RH [1, 6]: 7.7%
overall weight loss in moisture sorption [1]: approximately 3.3%
XRPD result after humidity stress [4]: Disordered κ

CO[C@H]1/C=C/O[C@@]2(C)Oc3c(C)c(O)c4c(O)c(c5c(nc6cc(C)ccn65)c4c3C2=O)NC(=O)/C(C)=C\C=C\[C@H](C)[C@H](O)[C@@H](C)[C@@H](O)[C@@H](C)[C@H](OC(C)=O)[C@@H]1C [As received, rifaximin]
d10 [3]: 0.399 μm
d50 [3]: 8.629 μm
d90 [3]: 33.891 μm

C1CNCCN1.CC#N.COC1C=COC2(C)Oc3c(C)c(O)c4c(O)c(c5c(nc6cc(C)ccn65)c4c3C2=O)NC(=O)C(C)=CC=CC(C)C(O)C(C)C(O)C(C)C(OC(C)=O)C1C.COC1C=COC2(C)Oc3c(C)c(O)c4c(O)c(c5c(nc6cc(C)ccn65)c4c3C2=O)NC(=O)C(C)=CC=CC(C)C(O)C(C)C(O)C(C)C(OC(C)=O)C1C (centres unmarked) [cocrystal 2, rifaximin:piperazine cocrystal 2]
behaviour upon exposure to ambient conditions [2]: rapidly desolvates
form conversion after exposure to ambient conditions ([2]; longer exposure (ex. 12 days)): conversion to material similar to cocrystal 1, but exhibiting broad peaks with additional peaks at approximately 5 and 17°2θ
form conversion after exposure to ambient conditions ([2]; relatively short exposure (ex. 5-6 hours)): convert to cocrystal 1
